Data as given in patent US20170360013A1, “ANIMAL MODEL FOR DRY EYE AND METHODS OF USE OF SUCH ANIMALS” (REGENERON PHARMACEUTICALS, INC., priority 2014, published 2017).

Columns and labels:
[1] = test system: C57BL/6 mice; assay: Flow cytometry of extraorbital lacrimal glands (CD45+ immune cell infiltration); type: in vivo, mouse; settings: after 4 weeks of treatment; relative to controls
Protocol: (§1) Dry eye model induction: 27 adult, male C57BL/6 mice were randomized to naïve (untreated), sham (receiving surgery equivalent to surgery for implantation of pump, but without actual implantation of pump and without scopolamine or BAC treatment), benzalkonium chloride (BAC), scopolamine (Scop) or BAC plus Scop groups.
(§2) Implantation of scopolamine pump. For Scop group, mice were subcutaneously implanted with an osmotic pump filled with Scop (2 mg/20 g body weight/day) lasting for 4 weeks. Mice were anesthetized with ketamine (120 mg/kg, IP) and xylazine (5 mg/kg, IP). Using aseptic microsurgical technique and an operating microscope, a mini-osmotic pump was placed beneath the back skin, then the skin was sutured, and erythromycin ophthalmic ointment was applied to the wound to prevent infection.
(§3) Benzalkonium chloride treatment. For BAC treatment, 1 μl of 0.1-0.2% BAC was topically administrated on the right eye ocular surface, twice daily, 2 days per week, for four weeks.
Quantification of corneal angiogenesis, lymphangiogenesis and lacrimal gland infiltration. On day 28 after induction of dry eye, under deep ketamine (120 mg/kg, IP) and xylazine (5 mg/kg, IP) anesthesia, eyeballs were collected in 4% paraformaldehyde (PFA) for corneal angiogenesis and lymphangiogenesis studies. […]
Flow cytometry. […] Data was analyzed by FlowJo (Tree Star, Ashland, Oreg.).

[2] = test system: C57BL/6 mice; assay: Tear production measurement (phenol red thread) in dry eye model induction; type: in vivo, mouse; settings: over four weeks of administration; Scop 2 mg/20 g body weight/day by s.c. osmotic pump; BAC 1 μl of 0.1-0.2% topical, twice daily, 2 days per week; relative to controls or BAC alone; p<0.001
Protocol: as §1, §2, §3
Tear production measurement and corneal fluorescein staining score. Tear production and corneal fluorescein staining were performed once per week, on day 7, 14, 21, and 28. […] Five minutes after application, corneal fluorescein staining was scored under a microscope using the National Eye Institute (NEI) scoring standards.

Row | Compound | percent of CD45+ cells in extraorbital lacrimal glands [1] | tear production [2]
1 | benzalkonium chloride [BAC] | increased | –
2 | CN1[C@@H]2C[C@@H](OC(=O)[C@H](CO)c3ccccc3)C[C@H]1[C@@H]1O[C@@H]12 [Scop, scopolamine] | increased | significantly decreases
